These molecules were tested against T1, full-length beta-Catenin (Uniprot ID P35222) (Homo sapiens, UniProt P35222) (assay: Fluorescence polarization IC50 (beta-catenin / 5FAM-TCF4 10-53 competition)). Settings: fluorescence polarization; read-out: beta-Catenin FP IC50.
T1 construct: 10 nM full-length beta-Catenin (Uniprot ID P35222)
T1 sequence (P35222 1-781): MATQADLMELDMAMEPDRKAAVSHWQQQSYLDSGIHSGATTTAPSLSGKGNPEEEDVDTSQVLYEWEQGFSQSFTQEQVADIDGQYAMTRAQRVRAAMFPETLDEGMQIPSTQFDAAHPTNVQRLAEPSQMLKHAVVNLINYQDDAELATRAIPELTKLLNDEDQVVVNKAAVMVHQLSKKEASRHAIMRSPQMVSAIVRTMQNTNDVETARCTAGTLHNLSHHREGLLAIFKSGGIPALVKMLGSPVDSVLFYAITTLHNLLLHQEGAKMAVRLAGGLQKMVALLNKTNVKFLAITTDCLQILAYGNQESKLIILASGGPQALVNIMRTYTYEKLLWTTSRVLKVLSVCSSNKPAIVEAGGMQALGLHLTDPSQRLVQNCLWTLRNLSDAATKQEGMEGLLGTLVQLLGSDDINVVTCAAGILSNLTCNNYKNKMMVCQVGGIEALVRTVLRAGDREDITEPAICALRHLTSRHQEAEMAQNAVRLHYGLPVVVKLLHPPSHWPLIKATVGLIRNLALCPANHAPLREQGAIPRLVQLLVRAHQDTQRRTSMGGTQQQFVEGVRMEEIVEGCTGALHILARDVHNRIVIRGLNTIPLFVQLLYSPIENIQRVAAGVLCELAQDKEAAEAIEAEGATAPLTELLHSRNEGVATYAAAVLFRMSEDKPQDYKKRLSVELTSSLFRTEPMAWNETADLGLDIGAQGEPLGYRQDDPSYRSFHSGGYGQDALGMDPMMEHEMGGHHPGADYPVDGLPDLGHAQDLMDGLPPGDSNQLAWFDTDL
Type: binding

Row | SMILES | IC50 [nM]
1 | COc1cccc(C[C@@H]2NC(=O)[C@H](C)NC(=O)[C@H](CCCCNC(C)C)NC(=O)[C@H](CCC(N)=O)NC(=O)[C@H](CC(=O)O)NC(=O)C3(CCCC=CCCCOC(=O)N4CC[C@@](C(=O)N[C@@H](Cc5ccccc5)C(=O)N[C@@H](Cc5csc6ccccc56)C(=O)N[C@@H](CCO)C(N)=O)(C4)NC(=O)[C@H](CC(N)=O)NC2=O)CCCC=CC[C@]2(CCCN2C(C)=O)C(=O)N[C@@H](CC(N)=O)C(=O)N[C@@H](CC2CCCCC2)C(=O)N3)c1 (stereo partly drawn) [I-1926, Ac-PL3-Asn-Cha-B5-Asp-Gln-iPrLys-Ala-3OMeF-Asn-PyrS2-Phe-BztA-Hse-NH2] | 417
2 | CC(=O)N1CCC[C@]12CC=CCCCC1(CCCC=CCCCOC(=O)N3CC[C@@](C(=O)N[C@@H](Cc4cccnc4)C(=O)N[C@@H](Cc4csc5ccccc45)C(=O)N[C@@H](CCO)C(N)=O)(C3)NC(=O)[C@H](CC(N)=O)NC(=O)[C@H](Cc3ccccc3)NC(=O)[C@H](C)NC(=O)[C@H](CCCCNC(C)C)NC(=O)[C@H](CCC(N)=O)NC(=O)[C@H](CC(=O)O)NC1=O)NC(=O)[C@H](CC1CCCCC1)NC(=O)[C@H](CC(N)=O)NC2=O (stereo partly drawn) [I-1927, Ac-PL3-Asn-Cha-B5-Asp-Gln-iPrLys-Ala-Phe-Asn-PyrS2-3PyrA-BztA-Hse-NH2] | 5140
3 | CC(=O)N1CCC[C@]12CC=CCCCC1(CCCC=CCCCOC(=O)N3CC[C@@](C(=O)N[C@@H](Cc4cccc(Cl)c4)C(=O)N[C@@H](Cc4csc5ccccc45)C(=O)N[C@@H](CCO)C(N)=O)(C3)NC(=O)[C@H](CC(N)=O)NC(=O)[C@H](Cc3ccccc3)NC(=O)[C@H](C)NC(=O)[C@H](CCCCNC(C)C)NC(=O)[C@H](CCC(N)=O)NC(=O)[C@H](CC(=O)O)NC1=O)NC(=O)[C@H](CC1CCCCC1)NC(=O)[C@H](CC(N)=O)NC2=O (stereo partly drawn) [I-1928, Ac-PL3-Asn-Cha-B5-Asp-Gln-iPrLys-Ala-Phe-Asn-PyrS2-3C1F-BztA-Hse-NH2] | 887
4 | COc1cccc(C[C@H](NC(=O)[C@]23CCN(C2)C(=O)OCCCC=CCCCC2(CCCC=CC[C@]4(CCCN4C(C)=O)C(=O)N[C@@H](CC(N)=O)C(=O)N[C@@H](CC4CCCCC4)C(=O)N2)C(=O)N[C@@H](CC(=O)O)C(=O)N[C@@H](CCC(N)=O)C(=O)N[C@@H](CCCCNC(C)C)C(=O)N[C@@H](C)C(=O)N[C@@H](Cc2ccccc2)C(=O)N[C@@H](CC(N)=O)C(=O)N3)C(=O)N[C@@H](Cc2csc3ccccc23)C(=O)N[C@@H](CCO)C(N)=O)c1 (stereo partly drawn) [I-1930, Ac-PL3-Asn-Cha-B5-Asp-Gln-iPrLys-Ala-Phe-Asn-PyrS2-3OMeF-BztA-Hse-NH2] | 1560
5 | CC(=O)N1CCC[C@]12CC=CCCCC1(CCCC=CCCCOC(=O)N3CC[C@@](C(=O)N[C@@H](Cc4ccccc4)C(=O)N[C@@H](Cc4csc5ccccc45)C(=O)N[C@@H](CCO)C(N)=O)(C3)NC(=O)[C@H](CC(N)=O)NC(=O)[C@H](Cc3ccccc3)NC(=O)[C@H](CO)NC(=O)[C@H](CCCCNC(C)C)NC(=O)[C@H](CCC(N)=O)NC(=O)[C@H](CC(=O)O)NC1=O)NC(=O)[C@H](CC1CCCCC1)NC(=O)[C@H](CC(N)=O)NC2=O (stereo partly drawn) [I-1931, Ac-PL3-Asn-Cha-B5-Asp-Gln-iPrLys-Ser-Phe-Asn-PyrS2-Phe-BztA-Hse-NH2] | 1560
6 | CC(=O)N1CCC[C@]12CC=CCCCC1(CCCC=CCCCOC(=O)N3CC[C@@](C(=O)N[C@@H](Cc4ccccc4)C(=O)N[C@@H](Cc4csc5ccccc45)C(=O)N[C@@H](CCO)C(N)=O)(C3)NC(=O)[C@H](CC(N)=O)NC(=O)[C@H](Cc3ccccc3)NC(=O)[C@H](C)NC(=O)[C@H](CCCCNC(C)C)NC(=O)[C@H](CCC(N)=O)NC(=O)[C@H](CC(=O)O)NC1=O)NC(=O)[C@H](CC1CCCCC1)NC(=O)[C@H](CCO)NC2=O (stereo partly drawn) [I-1932, Ac-PL3-Hse-Cha-B5-Asp-Gln-iPrLys-Ala-Phe-Asn-PyrS2-Phe-BztA-Hse-NH2] | 285
7 | CC(=O)N1CCC[C@]12CC=CCCCC1(CCCC=CCCCOC(=O)N3CC[C@@](C(=O)N[C@@H](Cc4ccccc4)C(=O)N[C@@H](Cc4csc5ccccc45)C(=O)N[C@@H](CCO)C(N)=O)(C3)NC(=O)[C@H](CC(N)=O)NC(=O)[C@H](Cc3ccccc3)NC(=O)[C@H](C)NC(=O)[C@H](CCCCNC(C)C)NC(=O)[C@H](CCO)NC(=O)[C@H](CC(=O)O)NC1=O)NC(=O)[C@H](CC1CCCCC1)NC(=O)[C@H](CC(N)=O)NC2=O (stereo partly drawn) [I-1933, Ac-PL3-Asn-Cha-B5-Asp-Hse-iPrLys-Ala-Phe-Asn-PyrS2-Phe-BztA-Hse-NH2] | 154
8 | CC(=O)N1CCC[C@]12CC=CCCCC1(CCCC=CCCCOC(=O)N3CC[C@@](C(=O)N[C@@H](Cc4ccsc4)C(=O)N[C@@H](Cc4csc5ccccc45)C(=O)N[C@@H](CCC(N)=O)C(N)=O)(C3)NC(=O)[C@H](CCC(=O)N3CCn4cncc4C3)NC(=O)[C@H](Cc3ccccc3)NC(=O)[C@H](C)NC(=O)[C@H](C)NC(=O)[C@H](CN(CC(=O)O)CC(F)(F)F)NC(=O)[C@H](CC(=O)O)NC1=O)NC(=O)[C@H](CC(C)(C)C)NC(=O)[C@H](CC(=O)O)NC2=O (stereo partly drawn) [I-1934, Ac-PL3-Asp-Npg-B5-Asp-TfeGA-Ala-Ala-Phe-[H4IAP]GlnR-PyrS2-3Thi-BztA-Gln-NH2] | 5
9 | CC(=O)N1CCC[C@]12CC=CCCCC1(CCCC=CCCCOC(=O)N3CC[C@@](C(=O)N[C@@H](Cc4ccsc4)C(=O)N[C@@H](Cc4csc5ccccc45)C(=O)N[C@@H](CCC(N)=O)C(N)=O)(C3)NC(=O)[C@H](CCC(=O)N3CCC(N4CCN(C)CC4)CC3)NC(=O)[C@H](Cc3ccccc3)NC(=O)[C@H](C)NC(=O)[C@H](C)NC(=O)[C@H](CN(CC(=O)O)CC(F)(F)F)NC(=O)[C@H](CC(=O)O)NC1=O)NC(=O)[C@H](CC(C)(C)C)NC(=O)[C@H](CC(=O)O)NC2=O (stereo partly drawn) [I-1937, Ac-PL3-Asp-Npg-B5-Asp-TfeGA-Ala-Ala-Phe-[4MePpzPip]GlnR-PyrS2-3Thi-BztA-Gln-NH2] | 9
10 | CC(=O)N1CCC[C@]12CC=CCCCC1(CCCC=CCCCOC(=O)N3CC[C@@](C(=O)N[C@@H](Cc4ccsc4)C(=O)N[C@@H](Cc4csc5ccccc45)C(=O)N[C@@H](CCC(N)=O)C(N)=O)(C3)NC(=O)[C@H](CC(C)C)NC(=O)[C@H](Cc3ccccc3)NC(=O)[C@H](C)NC(=O)[C@H](C)NC(=O)[C@H](CC(=O)O)NC(=O)[C@H](CC(=O)S)NC1=O)NC(=O)[C@H](CC(C)(C)C)NC(=O)[C@H](CC(=O)O)NC2=O (stereo partly drawn) [I-1944, Ac-PL3-Asp-Npg-B5-AspSH-Asp-Ala-Ala-Phe-Leu-PyrS2-3Thi-BztA-Gln-NH2] | 1630
11 | CC(=O)N1CCC[C@]12CC=CCCCC1(CCCC=CCCCOC(=O)N3CC[C@@](C(=O)N[C@@H](Cc4ccsc4)C(=O)N[C@@H](Cc4csc5ccccc45)C(=O)N[C@@H](CCC(N)=O)C(N)=O)(C3)NC(=O)[C@H](CC(C)C)NC(=O)[C@H](Cc3ccccc3)NC(=O)[C@H](C)NC(=O)[C@H](C)NC(=O)[C@H](CC(=O)O)NC(=O)[C@H](CC(=O)S)NC1=O)NC(=O)[C@H](CC(C)(C)C)NC(=O)[C@H](CC(=O)O)NC2=O (stereo partly drawn) [I-1945, Ac-PL3-Asp-Npg-B5-AspSH-Asp-Ala-Ala-Phe-Leu-PyrS2-3Thi-BztA-Gln-NH2] | 918
12 | CC(=O)N1CCC[C@]12CC=CCCCC1(CCCC=CCCCOC(=O)N3CC[C@@](C(=O)N[C@@H](Cc4ccsc4)C(=O)N[C@@H](Cc4csc5ccccc45)C(=O)N[C@@H](CCC(N)=O)C(N)=O)(C3)NC(=O)[C@H](CC(C)C)NC(=O)[C@H](Cc3ccccc3)NC(=O)[C@H](C)NC(=O)[C@H](C)NC(=O)[C@H](CC(=O)S)NC(=O)[C@H](CC(=O)O)NC1=O)NC(=O)[C@H](CC(C)(C)C)NC(=O)[C@H](CC(=O)O)NC2=O (stereo partly drawn) [I-1946, Ac-PL3-Asp-Npg-B5-Asp-AspSH-Ala-Ala-Phe-Leu-PyrS2-3Thi-BztA-Gln-NH2] | 874
13 | CC(=O)N1CCC[C@]12CC=CCCCC1(CCCC=CCCCOC(=O)N3CC[C@@](C(=O)N[C@@H](Cc4ccsc4)C(=O)N[C@@H](Cc4csc5ccccc45)C(=O)N[C@@H](CCC(N)=O)C(N)=O)(C3)NC(=O)[C@H](CC(C)C)NC(=O)[C@H](Cc3ccccc3)NC(=O)[C@H](C)NC(=O)[C@H](C)NC(=O)[C@H](CC(=O)S)NC(=O)[C@H](CC(=O)O)NC1=O)NC(=O)[C@H](CC(C)(C)C)NC(=O)[C@H](CC(=O)O)NC2=O (stereo partly drawn) [I-1947, Ac-PL3-Asp-Npg-B5-Asp-AspSH-Ala-Ala-Phe-Leu-PyrS2-3Thi-BztA-Gln-NH2] | 253
14 | CC(=O)N1CCC[C@]12CC=CCCCC1(CCCC=CCCCOC(=O)N3CC[C@@](C(=O)N[C@@H](Cc4ccsc4)C(=O)N[C@@H](Cc4csc5ccccc45)C(=O)N[C@@H](CCC(N)=O)C(N)=O)(C3)NC(=O)[C@H](CC(C)C)NC(=O)[C@H](Cc3ccccc3)NC(=O)[C@H](C)NC(=O)[C@H](C)NC(=O)[C@H](CCC(=O)S)NC(=O)[C@H](CC(=O)O)NC1=O)NC(=O)[C@H](CC(C)(C)C)NC(=O)[C@H](CC(=O)O)NC2=O (stereo partly drawn) [I-1948, Ac-PL3-Asp-Npg-B5-Asp-GluSH-Ala-Ala-Phe-Leu-PyrS2-3Thi-BztA-Gln-NH2] | 1330
